Values joined by “and” are separate entries in the source; they are usually repeats but may differ in a detail not shown here. Identical values can stand only once. Toxic doses and inconclusive results are not listed. The calls were made as follows: active = survival T/C of 150% or more; inactive = T/C below 125% in these data. Peptide text beside a SMILES is read from it. * marks the point of attachment. Cbz = O=C(OCc1ccccc1)*; Propionyl = CCC(=O)*; Bn = c1ccc(C*)cc1
Test system: P388 leukemia ip, CD2F1 mice, survival T/C
Assay: NCI In Vivo Anticancer Drug Screen. Data for tumor model P388 Leukemia (intraperitoneal) in CD2F1 (CDF1) mice
Settings: endpoint: median survival time, higher = longer survival
In short: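 Mice carrying the transplanted tumor received test compound or vehicle. Survival was recorded in each group, and the value is the treated-group measurement divided by that of the vehicle-treated control group.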

[1] = dose: 50.0 mg/kg/injection, schedule: Q01DX009 (ip), vehicle: saline with Tween-80
[2] = dose: 100.0 mg/kg/injection, schedule: Q01DX009 (ip), vehicle: saline with Tween-80
[3] = dose: 200.0 mg/kg/injection, schedule: Q01DX009 (ip), vehicle: saline with Tween-80
[4] = dose: 50.0 mg/kg/injection, schedule: Q01DX005 (ip), vehicle: saline with Tween-80
[5] = dose: 100.0 mg/kg/injection, schedule: Q01DX005 (ip), vehicle: saline with Tween-80
[6] = dose: 200.0 mg/kg/injection, schedule: Q01DX005 (ip), vehicle: saline with Tween-80
[7] = dose: 50.0 mg/kg/injection, schedule: Q01DX009 (ip), vehicle: saline
[8] = dose: 100.0 mg/kg/injection, schedule: Q01DX009 (ip), vehicle: saline
[9] = dose: 200.0 mg/kg/injection, schedule: Q01DX009 (ip), vehicle: saline
[10] = dose: 50.0 mg/kg/injection, schedule: Q01DX009 (ip), vehicle: Klucel (hydroxypropylcellulose) (HPC)
[11] = dose: 100.0 mg/kg/injection, schedule: Q01DX009 (ip), vehicle: Klucel (hydroxypropylcellulose) (HPC)
[12] = dose: 200.0 mg/kg/injection, schedule: Q01DX009 (ip), vehicle: Klucel (hydroxypropylcellulose) (HPC)
[13] = dose: 60.0 mg/kg/injection, schedule: Q01DX005 (ip), vehicle: Klucel (hydroxypropylcellulose) (HPC)
[14] = dose: 120.0 mg/kg/injection, schedule: Q01DX005 (ip), vehicle: Klucel (hydroxypropylcellulose) (HPC)
[15] = dose: 240.0 mg/kg/injection, schedule: Q01DX005 (ip), vehicle: Klucel (hydroxypropylcellulose) (HPC)
[16] = dose: 60.0 mg/kg/injection, schedule: Q01DX005 (ip), vehicle: saline with Tween-80
[17] = dose: 120.0 mg/kg/injection, schedule: Q01DX005 (ip), vehicle: saline with Tween-80
[18] = dose: 240.0 mg/kg/injection, schedule: Q01DX005 (ip), vehicle: saline with Tween-80
[19] = dose: 50.0 mg/kg/injection, schedule: Q01DX005 (ip), vehicle: saline
[20] = dose: 100.0 mg/kg/injection, schedule: Q01DX005 (ip), vehicle: saline
[21] = dose: 200.0 mg/kg/injection, schedule: Q01DX005 (ip), vehicle: saline

Measured: T/C

CCC(=O)NC(CSCc1ccccc1)C(=O)NC(CCC(=O)OC)C(=O)OC (stereo not given) (Propionyl-Cys(Bn)-Glu(OMe)-OMe; configuration not given here)
inactive: [1] 110 % of control | [2] 100 % of control | [3] 97 % of control

COC1CCC(NC(C)=O)C(C2CCCCC2)C1 (stereo not given)
inactive: [4] 99 % of control | [5] 94 % of control | [6] 91 % of control

CCCOP(=O)(NNP(=O)(OCCC)OCCC)OCCC
inactive: [1] 106 % of control | [2] 116 % of control | [3] 116 % of control

NC(=S)c1ccc(C=Nc2ccc(C(N)=S)cc2)cc1
inactive: dose: 100.0 mg/kg/injection, schedule: Q01DX001 (ip), vehicle: Klucel (hydroxypropylcellulose) (HPC) 87 % of control | dose: 200.0 mg/kg/injection, schedule: Q01DX001 (ip), vehicle: Klucel (hydroxypropylcellulose) (HPC) 91 % of control | dose: 400.0 mg/kg/injection, schedule: Q01DX001 (ip), vehicle: Klucel (hydroxypropylcellulose) (HPC) 88 % of control

COCN(Cc1ccccc1)C[Si](C)(C)C
inactive: dose: 100.0 mg/kg/injection, schedule: Q01DX001 (ip), vehicle: saline with Tween-80 106 % of control | dose: 200.0 mg/kg/injection, schedule: Q01DX001 (ip), vehicle: saline with Tween-80 99 % of control

CC(C)C(O)C1CCOS1(=O)=O (stereo not given)
inactive: dose: 100.0 mg/kg/injection, schedule: Q04DX003 (ip), vehicle: saline 95 % of control | dose: 200.0 mg/kg/injection, schedule: Q04DX003 (ip), vehicle: saline 101 % of control

C=C(C)C(=O)OCCC[Si](OCCOC)(OCCOC)OCCOC
inactive: [7] 95 % of control | [8] 95 % of control | [9] 106 % of control

Cc1cc(NC(=S)Nc2ccccc2)c(NC(=S)Nc2ccccc2)cc1C
inactive: dose: 25.0 mg/kg/injection, schedule: Q01DX009 (ip), vehicle: Klucel (hydroxypropylcellulose) (HPC) 97 % of control | [10] 100 % of control | [11] 98 % of control | [12] 92 % of control | dose: 400.0 mg/kg/injection, schedule: Q01DX009 (ip), vehicle: Klucel (hydroxypropylcellulose) (HPC) 106 % of control

c1ccc2c(SCCCCCCCCCSc3c4ccccc4nc4ccccc34)c3ccccc3nc2c1
inactive: [13] 107 % of control | [14] 104 % of control | [15] 90 % of control

CN1C(=O)N(C)C2(C(=O)c3cccc4cccc2c34)C1=O (stereo not given)
inactive: dose: 50.0 mg/kg/injection, schedule: Q01DX009 (ip), vehicle: distilled water + alcohol 100 % of control | dose: 100.0 mg/kg/injection, schedule: Q01DX009 (ip), vehicle: distilled water + alcohol 94 % of control | dose: 200.0 mg/kg/injection, schedule: Q01DX009 (ip), vehicle: distilled water + alcohol 100 % of control

NCCc1cc(=O)[nH]o1
inactive: dose: 50.0 mg/kg/injection, schedule: Q01DX009 (ip), vehicle: suspension in saline 90 % of control | dose: 100.0 mg/kg/injection, schedule: Q01DX009 (ip), vehicle: suspension in saline 90 % of control | dose: 200.0 mg/kg/injection, schedule: Q01DX009 (ip), vehicle: suspension in saline 91 % of control

COc1cccc2c1[C@@]1(C)C3C(=O)OC(C)(c4ccccc43)[C@@]1(C)C2=O (stereo not given in full)
inactive: [16] 108 % of control | [17] 110 % of control | [18] 103 % of control

Cc1cc2c(cc1C)Nc1oc3ccc4ccccc4c3c(=O)c1C=N2
inactive: dose: 6.25 mg/kg/injection, schedule: Q01DX005 (ip), vehicle: Klucel (hydroxypropylcellulose) (HPC) 104 % of control | dose: 12.5 mg/kg/injection, schedule: Q01DX005 (ip), vehicle: Klucel (hydroxypropylcellulose) (HPC) 99 % of control | dose: 25.0 mg/kg/injection, schedule: Q01DX005 (ip), vehicle: Klucel (hydroxypropylcellulose) (HPC) 96 % of control | dose: 200.0 mg/kg/injection, schedule: Q01DX005 (ip), vehicle: Klucel (hydroxypropylcellulose) (HPC) 89 % of control

C1=C2CCc3ccc(o3)CCC(=C1)O2
inactive: [4] 100 % of control | [5] 94 % of control | [6] 93 % of control

O=C(NC(Cc1ccc(O)cc1)C(=O)NC(Cc1ccccc1)C(=O)O)OCc1ccccc1 (stereo not drawn) (Cbz-Tyr-Phe-OH; configuration not given here)
inactive: [4] 102 % of control | [5] 106 % of control | [6] 104 % of control

CCNCC1COc2cccc(OCC)c2O1 (stereo not given)
inactive: dose: 25.0 mg/kg/injection, schedule: Q04DX002 (ip), vehicle: saline 104 % of control | dose: 50.0 mg/kg/injection, schedule: Q04DX002 (ip), vehicle: saline 101 % of control | dose: 100.0 mg/kg/injection, schedule: Q04DX002 (ip), vehicle: saline 99 % of control and 108 % of control

COc1ccc2nc3cc(Cl)ccc3c(Nc3ccccc3NS(C)(=O)=O)c2n1
inactive: dose: 12.5 mg/kg/injection, schedule: Q01DX009 (ip), vehicle: other 103 % of control | dose: 25.0 mg/kg/injection, schedule: Q01DX009 (ip), vehicle: other 105 % of control | dose: 50.0 mg/kg/injection, schedule: Q01DX009 (ip), vehicle: other 105 % of control | dose: 100.0 mg/kg/injection, schedule: Q01DX009 (ip), vehicle: other 111 % of control and 112 % of control | dose: 200.0 mg/kg/injection, schedule: Q01DX009 (ip), vehicle: other 106 % of control

CC(NCCN(C)C)C1CC2CCCCN2C1 (stereo not given)
inactive: [16] 104 % of control | [17] 97 % of control

CN(CCCCC(O)CN(C)C(=S)S)C(=S)S (stereo not given)
inactive: [19] 98 % of control | [20] 102 % of control | [21] 98 % of control

CC(C)c1c(OC(=O)N(C)C)c(C#N)c2[nH]c3ccccc3n2c1=O
inactive: [16] 109 % of control | [17] 94 % of control | [18] 86 % of control

CCO/C(C)=N\O
inactive: dose: 25.0 mg/kg/injection, schedule: Q04DX003 (ip), vehicle: Klucel (hydroxypropylcellulose) (HPC) 98 % of control | [7] 103 % of control | dose: 50.0 mg/kg/injection, schedule: Q04DX003 (ip), vehicle: Klucel (hydroxypropylcellulose) (HPC) 98 % of control | [8] 97 % of control | dose: 100.0 mg/kg/injection, schedule: Q04DX003 (ip), vehicle: Klucel (hydroxypropylcellulose) (HPC) 99 % of control | [9] 101 % of control | dose: 200.0 mg/kg/injection, schedule: Q04DX003 (ip), vehicle: Klucel (hydroxypropylcellulose) (HPC) 99 % of control

O=C1c2cc(Oc3ccccc3)c(S(=O)(=O)O)c(S(=O)(=O)O)c2C(=O)c2c(O)ccc(O)c21
inactive: dose: 25.0 mg/kg/injection, schedule: Q01DX005 (ip), vehicle: saline 104 % of control | [19] 107 % of control | [20] 94 % of control | [21] 94 % of control

NC(=O)c1[nH]c(N=Nc2ccc(Cl)cc2)nc1N
inactive: [10] 92 % of control | [11] 100 % of control | [12] 89 % of control

Cc1onc(-c2ccccc2)c1C(=O)N/N=C/c1cc(Cl)cc(Cl)c1O
inactive: [7] 103 % of control | [8] 91 % of control | [9] 99 % of control

NC(=O)c1nc2c(Nc3cccc(Cl)c3)nc(N)nc2nc1N
inactive: dose: 100.0 mg/kg/injection, schedule: Q01DX001 (ip), vehicle: saline 100 % of control | dose: 200.0 mg/kg/injection, schedule: Q01DX001 (ip), vehicle: saline 104 % of control | dose: 400.0 mg/kg/injection, schedule: Q01DX001 (ip), vehicle: saline 104 % of control

Nc1ccccc1SSc1ccccc1C(=O)O
inactive: dose: 50.0 mg/kg/injection, schedule: Q01DX005 (ip), vehicle: Klucel (hydroxypropylcellulose) (HPC) 112 % of control | dose: 100.0 mg/kg/injection, schedule: Q01DX005 (ip), vehicle: Klucel (hydroxypropylcellulose) (HPC) 112 % of control

O=CC1CCC(c2ccc3ccccc3c2)O1 (stereo not given)
inactive: [16] 106 % of control | [17] 114 % of control | [18] 114 % of control

NS(=O)(=O)Oc1ccccc1C(=O)Oc1ccccc1Cl
inactive: [13] 99 % of control | [14] 99 % of control | [15] 94 % of control

Reference: PubChem BioAssay AID330 (DTP/NCI, 2004)
